Results on 43 compounds are retold here after ChEMBL document CHEMBL1201862, “PubChem BioAssay data set” (2004).

Activity calls are given as the source filed them. For most assays here, no stated cut-off is given here; in the data, actives have a measured EC50 and inactives only a lower limit. Bounds are passed on as bounds.

For experiment [1], the target named is T1, Heat shock factor protein 1 (Mus musculus, UniProt P38532).
T1 sequence (P38532 whole entry): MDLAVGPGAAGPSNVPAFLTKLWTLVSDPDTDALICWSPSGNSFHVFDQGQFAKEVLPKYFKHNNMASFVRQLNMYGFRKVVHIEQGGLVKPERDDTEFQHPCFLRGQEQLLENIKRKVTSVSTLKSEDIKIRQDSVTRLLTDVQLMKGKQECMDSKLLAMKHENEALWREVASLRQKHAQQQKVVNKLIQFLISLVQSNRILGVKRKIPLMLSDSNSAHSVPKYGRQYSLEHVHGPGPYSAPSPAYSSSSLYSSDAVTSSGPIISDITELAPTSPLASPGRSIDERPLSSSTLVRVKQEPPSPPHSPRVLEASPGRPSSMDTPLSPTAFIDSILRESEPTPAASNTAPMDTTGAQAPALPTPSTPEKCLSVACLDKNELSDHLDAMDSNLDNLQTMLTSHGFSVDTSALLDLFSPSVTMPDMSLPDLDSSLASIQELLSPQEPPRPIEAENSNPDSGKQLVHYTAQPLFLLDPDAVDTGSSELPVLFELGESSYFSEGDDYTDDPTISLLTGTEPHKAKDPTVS
Briefly: inhibition of MG132-induced HSE-luciferase signal, confirmation, cell-based, NIH3T3, luminescence, dose retest (AID 2382).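 Further: NIH3T3 fibroblasts with HSF1-driven luciferase reporter stressed by proteasome inhibitor MG132; luminescence from HSF1-driven luciferase expression after 8 hours of MG132 stress.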 The format is functional.

Experiment [2] is described as follows: inhibitors of firefly luciferase expression or activity, dose response, H4 neuroglioma cells, luminescence (AID 1990). The format is functional, cell-based.
Experiment [3] can be described thus: Luminescence Cell-Based Dose Response HTS to Identify Inhibitors of 5'UTR Stem-Loop Driven Prion Protein mRNA Translation in H4 Neuroglioblastoma Cells. [Related pubchem assays: 1827 (Project Summary), 1813 (Primary HTS)]. The format is functional.
Experiment [4] is described as follows: inhibitors of SNCA 5'UTR-driven reporter translation, confirmation, H4 neuroglioma cells, luminescence (AID 1988). The format is functional, cell-based.
Experiment [5] has as its target T2, Corticotropin-releasing factor receptor 2/Corticotropin-releasing factor-binding protein (Homo sapiens, UniProt P24387+Q13324).
T2 sequence (Q13324 whole entry): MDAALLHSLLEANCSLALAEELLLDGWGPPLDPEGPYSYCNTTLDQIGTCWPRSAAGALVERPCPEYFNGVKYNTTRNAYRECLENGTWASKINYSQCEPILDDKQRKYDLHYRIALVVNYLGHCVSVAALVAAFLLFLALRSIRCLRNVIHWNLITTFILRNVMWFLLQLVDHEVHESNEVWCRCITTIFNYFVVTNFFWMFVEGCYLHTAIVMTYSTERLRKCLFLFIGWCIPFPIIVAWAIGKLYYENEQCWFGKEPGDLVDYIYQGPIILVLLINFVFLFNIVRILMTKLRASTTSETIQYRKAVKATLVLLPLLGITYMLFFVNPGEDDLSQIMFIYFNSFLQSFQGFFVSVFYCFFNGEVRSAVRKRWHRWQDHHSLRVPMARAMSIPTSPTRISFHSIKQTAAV
T2 sequence (P24387 whole entry): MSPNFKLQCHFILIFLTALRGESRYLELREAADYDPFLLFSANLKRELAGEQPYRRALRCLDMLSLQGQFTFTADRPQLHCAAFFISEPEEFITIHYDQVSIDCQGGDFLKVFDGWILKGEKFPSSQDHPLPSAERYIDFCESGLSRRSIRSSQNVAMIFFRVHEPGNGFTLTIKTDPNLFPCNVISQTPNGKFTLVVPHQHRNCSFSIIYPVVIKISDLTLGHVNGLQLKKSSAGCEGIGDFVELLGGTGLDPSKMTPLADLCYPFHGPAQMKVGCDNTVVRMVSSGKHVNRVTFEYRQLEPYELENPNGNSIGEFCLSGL
Briefly: Dose Response confirmation of uHTS hits for small molecule antagonists of the CRF-binding protein and CRF-R2 receptor complex. The format is functional. The conditions noted are these: read-out: IC50_Mean.

The target of experiment [6] is T2, Corticotropin-releasing factor receptor 2/Corticotropin-releasing factor-binding protein. Briefly: activators of CRF receptor 2 with binding protein – uHTS hits, confirmation (AID 602473). The format is functional. To be noted: read-out: EC50_Mean.
Experiment [7] is described as follows: Luminescence Cell-Based Dose Confirmation HTS to Identify Activators of 5'UTR Stem-Loop Driven Alpha-Synuclein mRNA Translation in H4 Neuroglioblastoma Cells. [Related pubchem assays: 1829 (Project Summary), 1814 (Primary HTS)]. The format is functional.
Experiment [8] can be described thus: Luminescence Cell-Based Dose Response HTS to Identify Activators of Luciferase Translation or Activity in H4 […] Cells. [Related pubchem assays: 1829 (Project Summary), 1814 (Primary HTS)]. The format is functional.
The next experiment relates to H4. Briefly: Luminescence Cell-Based Dose Response HTS to Identify Activators of 5'UTR Stem-Loop Driven Prion Protein mRNA Translation in H4 Neuroglioblastoma Cells. [Related pubchem assays: 1829 (Project Summary), 1814 (Primary HTS)]. The format is functional. To be noted: Homo sapiens.

With `CC1CCN(c2nc3ccc(C(=O)N4CCN(Cc5ccc6c(c5)OCO6)CC4)cc3s2)CC1`, the EC50 in experiment [1] was 16.5 µM (active).

On to `NS(=O)(=O)c1cccc(NC(=O)CNC(=O)CC23CC4CC(CC(C4)C2)C3)c1`, for which, in experiment [1], the EC50 is listed as > 195 µM (not active).

Regarding `Cc1c(Cc2ccccc2)sc(N)c1C(N)=O`, the EC50 in experiment [2] is 22.7 µM (active); in experiment [3], > 120 µM (not active); in experiment [4] it was > 120 µM (not active).

On to `COc1ccc(CN=C(S)Nc2ccc(-c3ccccc3)cc2)cc1`, for which the EC50 in experiment [2], in experiment [3] and in [4] was > 120 µM (not active) throughout.

Turning to `Cc1cc(C)cc(N(CC(=O)Nc2ccc(Br)cc2)S(=O)(=O)c2c(C)nc(O)nc2O)c1`, the EC50 in experiment [1] is on record as > 195 µM (not active).

Take `CCc1cc(C)cc(OCCNC(=O)c2cncc(Br)c2)c1`: the EC50 in experiment [1] is > 195 µM (not active).

In the case of `CCN(c1ccc(NS(=O)(=O)c2cc(Cl)ccc2Cl)cc1)C(C)C`, the IC50 in experiment [5] was > 47.1 µM (inactive). Also, the EC50 in experiment [6] is > 53 µM (inactive).

For the compound `C=C(C)CSc1nc2cc(Cl)c[nH]c-2n1`, the EC50 in [7] was 19 µM (active); in experiment [8], 50.8 µM (active); with H4 it was 84.5 µM (active).

As for `Oc1ccc(Br)cn1`, the EC50 in experiment [2], in experiment [3] and in [4] was > 120 µM (not active) each time.

On to `COc1ccc(CN2C(=O)[C@@H]3Cc4c([nH]c5ccccc45)C(C)(C)N3C2=O)cc1`, for which the EC50 in experiment [2], in experiment [3] and in [4] was > 120 µM (not active) each time.

On to `CCCNC(=O)COc1ccc2c(=O)c(Oc3ccccc3F)coc2c1`, for which the EC50 in experiment [1] was > 195 µM (not active).

On to `Cc1cc(C)n(C(CC(=O)O)C(=O)O)n1` (configuration not stated), for which the EC50 in experiment [1] is on record as > 195 µM (not active).

For `CN(c1ccccc1C(=O)Nc1cccc([N+](=O)[O-])c1)S(C)(=O)=O`, the EC50 in experiment [2] was > 120 µM (not active); in [3], 16.8 µM (active); in experiment [4], > 120 µM (not active).

Consider `CCOc1cc2c(cc1OCC)C(c1ccc(OC)cc1)N(c1ccccc1)C(=O)C2` (configuration not stated), for which the EC50 in experiment [1] is on record as > 195 µM (not active).

`COc1cccc(OCc2cc(C(=O)N(C)Cc3nccn3C)no2)c1`: the results for the EC50 (in experiment [7]; in experiment [8]; in the experiment on H4) were 9.91 µM (active), 15.6 µM (active) and > 120 µM (not active), respectively.

In the case of `CCC(=O)Nc1cc(Cl)ccc1N1CCN(C(=O)CC)CC1`, the IC50 in experiment [5] was > 47.1 µM (inactive). In addition, the EC50 in experiment [6] is > 53 µM (inactive).

Turning to `COc1ccc(N=C(S)Nc2ccc(F)cc2)c(OC)c1`, the EC50 in [1] is listed as > 195 µM (not active).

With `CCOC(=O)c1c(C(F)(F)C(F)(F)C(F)(F)C(F)(F)F)n[nH]c1C`, the IC50 in [5] is > 47.1 µM (inactive). In [6], the EC50 was > 53 µM (inactive).

Take `CC(C)c1ccc(NC(S)=NC2CCCCCC2)cc1`: the EC50 in experiment [7] was 0.166 µM (active); in experiment [8] it was 14.3 µM (active); with H4, 22 µM (active).

As to `CCCOc1ccc(C(=O)NC(=S)Nc2nc3ccccc3s2)cc1`, the results for the EC50 (in experiment [7]; in [8]; in the experiment with H4) were 20.9 µM (active), 22.5 µM (active) and 48.3 µM (active), respectively.

With `CCOC(=O)c1cc(C#N)c(N2CCN(c3ccccn3)CC2)nc1-c1ccccc1`, in [5], the IC50 is > 47.1 µM (inactive). For the same compound, the EC50 in experiment [6] was > 53 µM (inactive).

Take `COc1ccc(CCN2C(=O)CC(Cc3ccccc3)C2=O)cc1OC` (configuration not stated): the IC50 in [5] is > 47.1 µM (inactive). Also, the EC50 in experiment [6] was > 53 µM (inactive).

As for `c1ccc(C2CSc3ccccc3N2)cc1` (configuration not stated), the EC50 in experiment [7] was 16.9 µM (active); in experiment [8] it was 27.5 µM (active); in the experiment on H4 it was 22.5 µM (active).

As to `COc1ccc(C(=O)Cc2cnn(-c3ccccc3)c2)c(O)c1`, the EC50 in experiment [7] is 0.135 µM (active); in experiment [8] it was 1.58 µM (active); in the experiment on H4, > 120 µM (not active).

For the compound `COc1ccc(-c2nc3n(n2)C(c2ccccc2)C2=C(O)CCCC2=N3)cc1OC` (configuration not stated), in experiment [1], the EC50 was > 195 µM (not active).

Consider `CC(=O)Nc1ccc(S(=O)(=O)N2CCC(c3nnc(-c4ccc(C)cc4)o3)CC2)cc1`, for which the IC50 in experiment [5] is > 47.1 µM (inactive). Further, the EC50 in experiment [6] was > 53 µM (inactive).

With `Cc1cccc2cc(CN(Cc3ccccc3)C(S)=NCCCN(C)C)c(O)nc12`, in experiment [1], the EC50 is > 195 µM (not active).

As to `COc1ccc(NC(=O)c2sc3nc(N4CCCC4)c4c(c3c2N)CC(C)(C)OC4)c(OC)c1`, the EC50 is 35.2 µM (active) in experiment [2], 31.3 µM (active) in experiment [3] and 14.7 µM (active) in experiment [4].

For `Cc1ccnc(N2CCCC(C(=O)NCc3cccs3)C2)n1` (configuration not stated), the EC50 in experiment [1] is on record as > 195 µM (not active).

For `CC(=O)Nc1cc(C(=O)N2CCC3(CC2)OCCO3)ccc1S(=O)(=O)c1ccc(C)cc1`, the IC50 in [5] was > 47.1 µM (inactive). In addition, the EC50 in experiment [6] is > 53 µM (inactive).

For `Cc1ccc2c(c1)cc1c(O)nncn12`, the EC50 was 15.6 µM (active) in experiment [7], 9.57 µM (active) in experiment [8] and 24.7 µM (active) in the experiment with H4.

On to `CCOc1ccc(NC(=O)C(C)NS(=O)(=O)c2ccc(NC(C)=O)cc2)cc1` (configuration not stated), for which the EC50 in experiment [1] was > 195 µM (not active).

Consider `CCOC(=O)c1cccnc1NC(=O)c1ccncc1`, for which the EC50 in experiment [1] is > 195 µM (not active).

As to `Cc1c(C(=O)NCC2CCCO2)sc2nc(-c3ccc(F)cc3)cn12` (configuration not stated), in [5], the IC50 was > 47.1 µM (inactive). Besides, in experiment [6], the EC50 is > 53 µM (inactive).

For `O=C(NCc1cccs1)c1ccc(N2CCCCC2)nc1`, the values for the EC50 (in experiment [7]; in experiment [8]; with H4) were > 120 µM (not active), 30.9 µM (active) and 31.5 µM (active), respectively.

As to `Cc1cc(C)nc(SCCC(=O)Nc2ccccc2C)n1`, in [5], the IC50 was > 47.1 µM (inactive). In addition, in experiment [6], the EC50 is > 53 µM (inactive).

For the compound `Cc1ccccc1NC(=O)c1ccc2c(c1)OCCO2`, in experiment [1], the EC50 is on record as > 195 µM (not active).

Consider `O=C(NC(C(=O)c1ccccc1)n1ccc(=O)[nH]c1=O)c1ccccc1` (configuration not stated), for which the EC50 in experiment [7] was 7.39 µM (active); in experiment [8], 11.9 µM (active); in the experiment on H4 it was 16.4 µM (active).

Take `Cc1ccnc(N2CCCC(C(=O)NC3CC3)C2)n1` (configuration not stated): the IC50 in experiment [5] is > 47.1 µM (inactive). Also, the EC50 in [6] is > 53 µM (inactive).

As to `C/C(=N\NS(=O)(=O)c1ccccc1)c1ccc2c(c1)OCCO2`, the EC50 in [1] was > 195 µM (not active).

In the case of `O=S1(=O)CC/C(=N\Nc2ccc(F)cc2)c2ccsc21`, the EC50 in experiment [1] is > 195 µM (not active).

For the compound `O=C(Cc1ccccc1)N/N=C/c1ccc2c(c1)OCO2`, the EC50 was 1.52 µM (active) in [7], 103 µM (active) in [8] and > 120 µM (not active) with H4.

On to `O=C(Nc1ccc(Br)cc1)C1Cc2ccccc2O/C1=N\O` (configuration not stated), for which the results for the EC50 (in experiment [7]; in experiment [8]; in the experiment with H4) were 11.3 µM (active), 7.85 µM (active) and 9.69 µM (active), respectively.
